Earlier results, collected in US20100015174A1, “METHOD TO CONTROL DENGUE VIRUSES IN HUMANS BY PICOLINIC ACID AND DERIVATIVES THEREOF” (priority 2008, published 2010).

Key:
[1] = system: J2 retrovirus; conditions: GG2EE transformed macrophages; cited from earlier work
[2] = system: human aortic endothelial cells; conditions: cited from earlier work

For IFN-gamma: type II (immune) interferon, the J2 retrovirus expression [1] is given as “not affected”.

In the case of `O=C(O)c1cccnc1` [Niacin, Nicotinic acid], the “change of reactive oxygen species (ROS)” value [2] is listed as > 50%, the “change of vascular adhesion molecules (VCAM-I)” value [2] is listed as 80% and the “increase of NAD(P)H levels” value [2] is listed as 54%.
